Data as given in the supplement of paper PMC10331698.
± gives the standard deviation of the averaged measurements.

What was measured:
Assay in all cases: level (log10 ratio to DMSO vehicle control); higher = higher biomarker level / cell amount than vehicle control
[1] = compound: OCCC(F)(F)C(F)(F)C(F)(F)C(F)(F)C(F)(F)C(F)(F)C(F)(F)C(F)(F)F [8:2 Fluorotelomer alcohol]; details: 6700 nM; in DMSO
Protocol: (§1)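 BioMAP Diversity Plus panel of 12 human primary cell co-culture systems (3C, 4H, LPS, SAg, BT, BF4T, BE3C, CASM3C, HDF3CGF, KF3CT, MyoF, Mphg). Compounds were added 1 h before stimulation and left for 24 h (MyoF 48 h; BT 72 h for soluble read-outs or 6 d for IgG). Biomarkers were read by ELISA, cytotoxicity by SRB, PBMC viability and proliferation by Alamar Blue. Each well value was divided by the mean of 8 DMSO control wells on the same plate and log10 transformed; duplicate blinded samples were tested at 4 concentrations.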

[2] = compound: FC(F)(I)C(F)(F)C(F)(F)C(F)(F)C(F)(F)C(F)(F)I [1,6-Diiodoperfluorohexane]; details: 6700 nM; in DMSO
Protocol: as §1

[3] = compound: O=C(O)C(F)(F)C(F)(F)C(=O)O [Tetrafluorosuccinic acid]; details: in DMSO
Protocol: as §1

[4] = compound: O=P(O)(O)CCC(F)(F)C(F)(F)C(F)(F)C(F)(F)C(F)(F)C(F)(F)F [2-(Perfluorohexyl)ethylphosphonic acid]; details: in DMSO
Protocol: as §1

[5] = compound: C=C(C)C(=O)OCC(F)(F)C(F)(F)C(F)(F)F [2,2,3,3,4,4,4-Heptafluorobutyl methacrylate]; details: in DMSO
Protocol: as §1

[6] = compound: FC(F)(F)COC(OCC(F)(F)F)OCC(F)(F)F [tris(Trifluoroethoxy)methane]; details: in DMSO
Protocol: as §1

[7] = compound: OCCCC(F)(F)C(F)(F)C(F)(F)C(F)(F)C(F)(F)C(F)(F)C(F)(F)C(F)(F)F [3-(Perfluorooctyl)propanol]; details: 6700 nM; in DMSO
Protocol: as §1

[8] = compound: C=CC(=O)OCC(F)(F)C(F)(F)C(F)(F)C(F)(F)C(F)(F)C(F)(F)C(F)(F)C(F)F [1H,1H,9H-Perfluorononyl acrylate]; details: in DMSO
Protocol: as §1

Test System | level (log10) [1] | level (log10) [2] | level (log10) ([3]; 6700 nM) | level (log10) ([3]; 20000 nM) | level (log10) ([3]; 60000 nM) | level (log10) ([4]; 6700 nM) | level (log10) ([4]; 20000 nM) | level (log10) ([4]; 60000 nM) | level (log10) ([5]; 6700 nM) | level (log10) ([5]; 20000 nM) | level (log10) ([5]; 60000 nM) | level (log10) ([6]; 6700 nM) | level (log10) ([6]; 20000 nM) | level (log10) ([6]; 60000 nM) | level (log10) [7] | level (log10) ([8]; 6700 nM) | level (log10) ([8]; 20000 nM) | level (log10) ([8]; 60000 nM)
3C:CCL2/MCP-1 | -0.0025 ± 0.0021 | 0.01 | -0.0065 ± 0.016 | -0.006 ± 0.0028 | 0.0005 ± 0.0064 | 0.001 ± 0.0042 | -0.0035 ± 0.019 | 0.019 ± 0.054 | -0.0015 ± 0.0035 | -0.009 ± 0.0071 | 0.01 ± 0.027 | -0.0065 ± 0.019 | -0.0115 ± 0.022 | 0.021 ± 0.048 | 0.003 ± 0.013 | 0.0115 ± 0.053 | -0.017 ± 0.016 | 0.008 ± 0.024
3C:CD54/ICAM-1 | -0.014 ± 0.0014 | 0.03 | -0.0015 ± 0.0092 | -0.016 ± 0.011 | 0.001 ± 0.0028 | -0.0165 ± 0.012 | -0.018 ± 0.0014 | -0.0095 ± 0.005 | 0.002 ± 0.0028 | 0.007 ± 0.0042 | 0.0135 ± 0.005 | 0.004 ± 0.0042 | -0.0105 ± 0.0064 | -0.0145 ± 0.00071 | 0.0095 ± 0.0064 | -0.009 ± 0.0057 | -0.0085 ± 0.012 | -0.0105 ± 0.015
3C:CD62E/E-Selectin | -0.016 ± 0.0099 | 0.005 | -0.0015 ± 0.016 | -0.0155 ± 0.0064 | -0.01 ± 0.0099 | -0.0115 ± 0.0078 | 0 ± 0.0085 | -0.001 ± 0.024 | -0.005 ± 0.011 | -0.014 ± 0.0042 | -0.0015 ± 0.013 | -0.022 ± 0.0014 | -0.0185 ± 0.0078 | -0.0245 ± 0.0035 | -0.024 ± 0.0099 | -0.005 | -0.019 ± 0.0099 | -0.014 ± 0.018
3C:CD106/VCAM-1 | -0.035 ± 0.061 | -0.043 | -0.015 ± 0.014 | -0.015 ± 0.011 | -0.0105 ± 0.018 | -0.012 ± 0.03 | -0.004 ± 0.025 | 0.0055 ± 0.061 | 0.0145 ± 0.029 | 0.007 ± 0.016 | 0.017 ± 0.011 | -0.002 ± 0.016 | -0.0045 ± 0.019 | 0.0095 ± 0.0078 | -0.021 | -0.03 | -0.022 ± 0.0057 | -0.042 ± 0.02
3C:CD141/Thrombomodulin | 0.044 ± 0.0057 | -0.003 | -0.0285 ± 0.039 | -0.048 ± 0.024 | -0.038 ± 0.0085 | 0.01 ± 0.024 | 0.02 ± 0.051 | 0.0895 ± 0.044 | -0.009 ± 0.0099 | -0.0145 ± 0.013 | 0.002 ± 0.0071 | -0.012 ± 0.061 | -0.038 ± 0.047 | -0.0425 ± 0.049 | -0.0055 ± 0.019 | -0.042 ± 0.0028 | -0.076 ± 0.028 | -0.114 ± 0.016
3C:CD142/Tissue Factor | 0.0035 ± 0.14 | -0.001 | 0.001 ± 0.042 | 0.0025 ± 0.0064 | 0.006 ± 0.023 | 0.0325 ± 0.0078 | 0.04 ± 0.035 | 0.119 ± 0.0021 | -0.012 ± 0.021 | -0.017 ± 0.0014 | 0.001 ± 0.0099 | -0.0195 ± 0.07 | -0.009 ± 0.052 | -0.028 | -0.054 ± 0.016 | -0.007 ± 0.0028 | -0.0145 ± 0.016 | -0.024 ± 0.033
BE3C:Keratin 8/18 | -0.0185 ± 0.012 | -0.018 | 0.0225 ± 0.012 | 0.009 ± 0.013 | 0.0165 ± 0.00071 | -0.012 ± 0.0071 | -0.0175 ± 0.0021 | 0.0115 ± 0.03 | -0.0165 ± 0.056 | -0.002 ± 0.05 | -0.003 ± 0.03 | -0.0035 ± 0.019 | -0.0215 ± 0.021 | 0.01 ± 0.0057 | 0.0085 ± 0.033 | -0.037 ± 0.011 | -0.0165 ± 0.005 | -0.0355 ± 0.04
BE3C:MMP-1 | 0.0275 ± 0.021 | 0.014 | -0.0025 ± 0.011 | -0.0125 ± 0.0078 | 0.032 ± 0.038 | 0.002 ± 0.017 | 0.0005 ± 0.026 | 0.052 ± 0.075 | -0.012 ± 0.0014 | -0.0055 ± 0.015 | 0.048 ± 0.014 | 0.004 ± 0.059 | 0.004 ± 0.025 | 0.01 ± 0.0099 | 0.064 ± 0.0042 | -0.023 ± 0.013 | -0.009 ± 0.027 | 0.038 ± 0.064
BE3C:MMP-9 | -0.028 ± 0.02 | -0.008 | -0.014 ± 0.027 | -0.0035 ± 0.011 | -0.005 ± 0.0028 | -0.019 ± 0.0042 | -0.0135 ± 0.012 | 0.007 ± 0.034 | 0.0155 ± 0.0092 | -0.0075 ± 0.016 | 0.032 ± 0.025 | -0.005 ± 0.0028 | -0.004 ± 0.0014 | 0.0045 ± 0.019 | 0.036 ± 0.038 | 0.0015 ± 0.0035 | -0.0185 ± 0.012 | 0 ± 0.021
BE3C:PAI-I | -0.055 ± 0.021 | 0.015 | -0.011 ± 0.0071 | 0.002 ± 0.018 | -0.001 ± 0.023 | -0.036 ± 0.0028 | -0.0065 ± 0.012 | 0.052 ± 0.04 | -0.0505 ± 0.043 | -0.003 ± 0.055 | 0.017 ± 0.064 | -0.0015 ± 0.0035 | -0.0005 ± 0.00071 | -0.0045 ± 0.00071 | -0.008 ± 0.0014 | -0.029 ± 0.031 | -0.003 ± 0.018 | -0.02 ± 0.011
BE3C:SRB | -0.0075 ± 0.0021 | -0.005 | -0.0045 ± 0.005 | -0.0045 ± 0.0064 | -0.001 ± 0.0028 | -0.01 ± 0.0042 | -0.001 ± 0.0085 | 0.001 ± 0.02 | -0.003 ± 0.011 | -0.0095 ± 0.0064 | -0.001 ± 0.0071 | -0.002 ± 0.0028 | 0.005 ± 0.0057 | -0.002 ± 0.0085 | -0.002 ± 0.0028 | -0.004 | 0.0005 ± 0.005 | 0.001 ± 0.016
BE3C:tPA | -0.064 ± 0.013 | -0.032 | -0.037 ± 0.023 | -0.0505 ± 0.026 | -0.0365 ± 0.022 | -0.0765 ± 0.022 | -0.0835 ± 0.0078 | -0.0615 ± 0.086 | -0.0095 ± 0.029 | -0.016 ± 0.016 | -0.021 ± 0.027 | -0.0075 ± 0.013 | -0.028 ± 0.024 | -0.0125 ± 0.021 | 0.0365 ± 0.012 | 0.0175 ± 0.018 | 0.0315 ± 0.0035 | 0.026 ± 0.0099
BE3C:uPA | -0.0175 ± 0.00071 | -0.002 | -0.007 ± 0.0057 | -0.016 ± 0.021 | -0.003 ± 0.013 | -0.016 ± 0.0099 | -0.004 ± 0.0071 | 0.0075 ± 0.012 | -0.005 ± 0.013 | 0.005 ± 0.011 | -0.002 ± 0.025 | 0.0075 ± 0.021 | -0.004 ± 0.0071 | -0.0175 ± 0.00071 | -0.005 ± 0.0085 | -0.0335 ± 0.0092 | 0.0015 ± 0.0092 | -0.0195 ± 0.0035
CASM3C:CCL2/MCP-1 | -0.0125 ± 0.0021 | -0.006 | -0.0005 ± 0.00071 | -0.0165 ± 0.005 | -0.0005 ± 0.025 | -0.009 ± 0.0028 | -0.0145 ± 0.013 | -0.003 ± 0.033 | 0.005 ± 0.013 | 0.0045 ± 0.0035 | 0.013 ± 0.0071 | 0.001 ± 0.0042 | -0.0005 ± 0.0064 | 0.0215 ± 0.035 | -0.0175 ± 0.016 | -0.0125 ± 0.0035 | -0.0095 ± 0.0092 | -0.0075 ± 0.018
CASM3C:CD87/uPAR | -0.018 ± 0.054 | 0.001 | -0.01 ± 0.021 | -0.024 ± 0.013 | -0.0185 ± 0.0021 | -0.0295 ± 0.022 | -0.025 ± 0.014 | -0.002 ± 0.0071 | -0.018 ± 0.0099 | -0.0235 ± 0.029 | -0.018 ± 0.0028 | -0.0095 ± 0.018 | -0.007 ± 0.023 | -0.021 ± 0.0085 | -0.021 ± 0.0085 | 0.0315 ± 0.005 | 0.017 ± 0.042 | 0.005 ± 0.0057
